Source: patent publication US20230130823A1, “PROCESS FOR THE PRODUCTION OF ANTITUMOUR PHARMACEUTICAL COMPOSITIONS USING PUSH-PULL BUTADIENES, COMPOUNDS AND USES THEREOF” (ANHANGUERA EDUCACIONAL PARTICIPAÇÕES S/A, priority 2019, published 2023)
“And” between values parts separate entries of the source, which are not always exact repeats. Equal values may be shown once.

Columns and labels:
[1] = tested on: murine melanoma cells B16F10; test: MTT cytotoxicity in B16F10 melanoma cells; assay type: cell-based
Method: The tumor line of murine melanoma B16F10 was donated by the Ludwig-Switzerland Institute. Adherent cell suspensions of B16F10 cells were obtained for all experimental procedures by treating culture flasks with trypsin 0.2% for 5 minutes and inactivated with 10% fetal bovine serum. The detached cells were centrifuged twice, resuspended in supplemented RPMI-1640 medium. The count was performed in Malassez chamber, and the cell concentration was adjusted in 5×10^5 cells/ml, in RPMI-1640 culture medium supplemented with 10% fetal bovine serum and 7 ug polymyxin-B (Sigma Chemical Company, St Louis Mo.-USA).
Cell viability was determined by the Trypan Blue exclusion test, being greater than 95% of viable cells. The cells were grown in plates with 96 well plate flat bottoms (Corning), at a concentration of 2×10^5 cells, maintained for 24 hours in a CO2 oven at 37° C. After this period, the plates were centrifuged for 5 minutes, at 2000 rpm at 4° C., the supernatant discarded and added different concentrations of the compounds, diluted in RPMI-1640 culture medium, supplemented and increased by 7 μg of Polymyxin-B (Sigma Chemical Company). After treatment with the various diluted compounds in complete culture medium, the cells were incubated with 0.5 mg/mL of MTT reactive.
The cell viability test was performed to verify the effect of the various compounds on the various concentrations previously established: on the lines of tumor cells B16F10 and normal human fibroblasts. The MTT method consists of a cell viability test that measures the activity of mitochondrial dehydrogenase. MTT is a colorimetric method based on the capacity of living cells to reduce salt 3-(4,5-di-methylazole-2-IL)-2,5-diphenyl tetrazolium bromide in the formazan product (Mosmann, 1983). After the cells plating (concentration of 1×10^4 per well of the culture plate) in RPMI-1640 medium and 10% SFB medium, they were maintained at 37° C. for periods of 24, 48, 72 and 96 hours. Four hours before the set time was completed, MTT 20 μL (Sigma) was added (final concentration of […]). The plates were kept in the oven for the remaining four hours. After the stipulated time, 180 μL of the supernatant were removed from each well and then added 150 μL of dimethyl sulfoxide (Sigma) homogenizing well for the complete dissolution of the salt crystals formed by the mitochondrial metabolism resulting in a staining.
The 96-well plate was read by the spectrophotometer (Spectra MAX-190) using the wavelength of 570 nm. The results were analyzed by absorbance of each well. The percentage of viability was obtained using the following formula: [(Absorbance of treated cells/Absorbance of untreated cells)×100]. The experiments were carried out in quadruplicate.
The samples of the compounds obtained by synthesis chemistry were diluted in DMSO solution at the final concentration of 10%.

[2] = tested on: 4T1 (murine mammary carcinoma); test: Cytotoxicity, 4T1 cells; assay type: cell-based; settings: Mus musculus, read-out: CI50% tumor cells
[3] = tested on: SCC9 (squamous-cell carcinoma of the oral cavity); test: Cytotoxicity, SCC9 cells; assay type: cell-based; settings: Homo sapiens, SCC-9, read-out: CI50% tumor cells
[4] = tested on: MCF-7 (human mammary adenocarcinoma); test: Cytotoxicity, MCF-7 cells; assay type: cell-based; settings: MCF7, read-out: CI50% tumor cells
[5] = tested on: HUVEC (Normal human endothelial cell); test: Cytotoxicity, HUVEC normal cells
[6] = tested on: SCC25 (squamous-cell carcinoma of the oral cavity); test: Cytotoxicity, SCC25 cells; assay type: cell-based; settings: Homo sapiens, SCC-25, read-out: CI50% tumor cells
[7] = tested on: FN-1 (Normal human fibroblast); test: Cytotoxicity, normal human fibroblasts; assay type: cell-based; settings: FN-1
Method: Fragments of cutaneous biopsies from patients treated by the Dermatology Service of the Clinic Hospital of the Medicine School of USP were removed for routine diagnostic procedures and part of the surgical flap edge immersed in Eagle culture medium modified by Dulbecco's (DMEM, Sigma Chemical Co., St. Louis, Mo., USA) added of 10% fetal bovine serum (Cultilab Ltda., Campinas-SP), […] and 50 ng/ml amphotericin B at 4 C and kept at 4 C for a maximum of 16 hours.
The fragments were washed three times in the same solution, cut into fragments of approximately 1 mm^3 and transferred to 25 cm^2 culture flasks, kept at 37 C, humid atmosphere containing 5% CO2. Cell growth monitored daily, photo documented in inversion microscopy and culture medium exchanged every 2 or 3 days, according to cell metabolism.
After 7 days, the first change in the culture medium of the flasks was performed once cell growth started, the culture medium was renewed every three days. Plastic flasks were used for cultivation of 25 cm^2 of cultivated area, where more 3 ml of DME medium containing 10% fetal bovine serum and 1% of antibiotic-antimycotic solution will be added.
The cell viability test was performed to verify the effect of the various compounds on the various concentrations previously established: on the lines of tumor cells B16F10 and normal human fibroblasts. The MTT method consists of a cell viability test that measures the activity of mitochondrial dehydrogenase. MTT is a colorimetric method based on the capacity of living cells to reduce salt 3-(4,5-di-methylazole-2-IL)-2,5-diphenyl tetrazolium bromide in the formazan product (Mosmann, 1983). […]
The 96-well plate was read by the spectrophotometer (Spectra MAX-190) using the wavelength of 570 nm. The results were analyzed by absorbance of each well. The percentage of viability was obtained using the following formula: [(Absorbance of treated cells/Absorbance of untreated cells)×100]. […]

Colo205 [8] = test: Analysis of the cell cycle phases, Colo205; assay type: cell-based
From the text: The compounds of this family were also studied for the distribution of the population of tumor cells in the different phases of the cell cycle: quiescent cells, non-proliferating (G1/G0 phase), which present DNA/RNA synthesis capacity (S phase) and cell division cells (G2/M phase).

Colo205 [9] = test: Determination of apoptotic cells (subG1), Colo205, flow cytometry; assay type: cell-based; settings: sub-diploid DNA content
From the text: Determination of Apoptotic Cells (subG1)-Colo205
In this experiment, the proportion of apoptotic cells was identified, that is, cells showing DNA content below normal (sub-diploid) in flow cytometry testing.

tumor cells line Colo205 = test: Colo205 cell count; assay type: cell-based; settings: compared to cells treated with culture medium only
Method: The compounds were tested for their ability to reduce the number of cells in the tumor, compared to cells treated with culture medium only. In Table 4, the results obtained are shown.

Question: With O=C(Oc1ccc(/C(Cl)=C/C=C/[N+](=O)[O-])cc1)c1ccccc1 [Compound 16, 4-(1-chloro-4-nitro-buta-1,3-dienyl)phenyl Benzoate] as the compound, how does the IC50 ([1]; Mus musculus, B16-F10, B16F10 melanoma, 24 hours of culture, MTT, read-out: CI50% (the source's name)) read?
Answer: 34.9 µg/mL and 106 µM

Question: CC(=O)C(=C/C=C(\Cl)c1ccc(I)cc1)C(C)=O [Compound 18, 3-acetyl-6-chloro-6-(4-iodophenyl)-hexa-3,5-diene-2-ona] was tested. Which IC50 [2] did it give?
Answer: 3.71 µM

Question: And the times more active ([1]; compared with the acetylacetone-derived benzoate isomers)?
Answer: ~7 times

Question: And the IC50 [3]?
Answer: 10.9 µM

Question: And the IC50 [4]?
Answer: 0.666 µM

Question: With CC(=O)C(=C/C=C(\Cl)c1ccc(C#C[C@@H]2O[C@H](CO)[C@@H](O)[C@H](O)[C@@H]2O)cc1)C(C)=O [Compound 18B, 3-((Z)-3-chloro-3-(4-(2-((2S,3R,4R,5R)-tetrahydro-3,4,5-trihydroxy-6-(Hydroxymethy)-2H-pyran-2-il)ethynyl)phenyl)allilideno)pentano-2,4-dione] as the compound, how does the IC50 [2] read?
Answer: 0.431 µM

Question: And the CI50% Normal cells [5]?
Answer: 0.293 µM

Question: And the IC50 [3]?
Answer: 0.445 µM

Question: What about the IC50 [6] of the same compound?
Answer: 0.453 µM

Question: COc1ccc(C(=O)/C(C#N)=C/C=C(\Cl)c2ccc(I)cc2)cc1OC [Compound 21, 5-chloro-2-(3,4-dimethoxy-benzoyl)-5-(4-iodine-phenyl)-penta-2,4-dienonitrile] was tested. Which IC50 [2] did it give?
Answer: 6.44 µM

Question: And the CI50% Normal cells [5]?
Answer: 16.4 µM

Question: And the IC50 [3]?
Answer: 0.858 µM

Question: What about the IC50 [4] of the same compound?
Answer: 0.293 µM

Question: With COc1ccc(/C=C/C(Cl)=C/C=C(C(C)=O)C(C)=O)cc1OC [Compound 24, 3-((2Z,4E)-3-chloro-5-(3,4-dimethoxyphenyl)penta-2,4-dien-ylidene)pentane-2,4-dione] as the compound, how does the CI50% Normal cells [5] read?
Answer: 114 µM

Question: And the “CI50% Normal cells” value [7]?
Answer: 61.80 µM

Question: For O=CC=C(Cl)c1ccc(OC(=O)c2ccccc2)cc1OC(=O)c1ccccc1 [Compound 27, 3-Chloro-3-(2,4-benzoyloxy-phenyl)propenal], which “Cell cycle phase (%) G1/G0” value (Colo205 [8]; G1/G0 phase) is on record?
Answer: 54.2 ± 0.35%

Question: What about the “Cell cycle phase (%) G2M” value (Colo205 [8]; G2/M phase) of the same compound?
Answer: 12.4 ± 0.63%

Question: What about the “Cell cycle phase (%) S” value (Colo205 [8]; S phase) of the same compound?
Answer: 33.4 ± 0.21%

Question: What about the “Percentage of cells (apoptotic, subG1)” value (Colo205 [9]) of the same compound?
Answer: 18.0 ± 0.354%

Question: And the “Relative number of cells (% ± standard deviation)” value (tumor cells line Colo205)?
Answer: 32.3 ± 1.017%

Question: For COc1cc(/C=C/C(=O)/C=C/C=C(Cl)/C=C/c2ccc(OC)c(OC)c2)ccc1O [Compound 29, (1E,4E,6Z,8E)-7-chloro-1-(4-hydroxy-3-methoxyphenyl)-9-(3,4-dimethoxyphenyl)nona-1,4,6,8-tetraen-3-ona], which IC50 [2] is on record?
Answer: 8.27 µM

Question: And the IC50 [3]?
Answer: 9.22 µM

Question: And the IC50 [4]?
Answer: 0.701 µM
